Consider 46 compounds from patent US9783536B2, “Nitrogen-containing heterocyclic compound or salt thereof” (FUJIFILM Corporation, priority 2013, dated 2017).

One assay concerns the target T1, human PI3Kα protein (Homo sapiens, UniProt P42336).
T1 construct: purchased Carna Biosciences, Inc; host or cells: baculovirus expression system
Briefly: PI3Kα enzyme assay (ADP-Glo). The assay is classed as biochemical. The settings on record: read-out: PI3Kα enzyme inhibitory activity. The method, boiled down: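 Biotinylated human PI3Kα (baculovirus-expressed, 4.5 nmol/L) pre-incubated 15 min with compound in Tris-HCl pH 7.5, MgCl2, BSA; reaction 60 min at 25° C with 50 μmol/L PIP2 and 100 μmol/L ATP final. ADP quantified by ADP-Glo luminescence; IC50 calculated.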

Assay [1] deals with T2, GST fusion human ERK2 protein (Homo sapiens, UniProt P28482).
T2 construct: purchased Carna Biosciences, Inc; host or cells: E. coli expression system
As to the kind of experiment: ERK2 enzyme assay (2). The assay is classed as biochemical. The note with it: read-out: ERK2 enzyme inhibitory activity (2). Summed up: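 IC50 values come from mobility-shift measurement of phosphorylated versus unphosphorylated 5-FAM peptide substrate after EDTA quench. Beforehand, compound and 1.25 nmol/L E. coli-expressed GST–human ERK2 stood 15 min at room temperature (pH 7.5), then 1 mmol/L ATP and 4.25 μmol/L substrate (final) were added for 120 min at 25 °C.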

Read-outs that look alike come from different tables or passages of the source.

T1 sequence (P42336 whole entry): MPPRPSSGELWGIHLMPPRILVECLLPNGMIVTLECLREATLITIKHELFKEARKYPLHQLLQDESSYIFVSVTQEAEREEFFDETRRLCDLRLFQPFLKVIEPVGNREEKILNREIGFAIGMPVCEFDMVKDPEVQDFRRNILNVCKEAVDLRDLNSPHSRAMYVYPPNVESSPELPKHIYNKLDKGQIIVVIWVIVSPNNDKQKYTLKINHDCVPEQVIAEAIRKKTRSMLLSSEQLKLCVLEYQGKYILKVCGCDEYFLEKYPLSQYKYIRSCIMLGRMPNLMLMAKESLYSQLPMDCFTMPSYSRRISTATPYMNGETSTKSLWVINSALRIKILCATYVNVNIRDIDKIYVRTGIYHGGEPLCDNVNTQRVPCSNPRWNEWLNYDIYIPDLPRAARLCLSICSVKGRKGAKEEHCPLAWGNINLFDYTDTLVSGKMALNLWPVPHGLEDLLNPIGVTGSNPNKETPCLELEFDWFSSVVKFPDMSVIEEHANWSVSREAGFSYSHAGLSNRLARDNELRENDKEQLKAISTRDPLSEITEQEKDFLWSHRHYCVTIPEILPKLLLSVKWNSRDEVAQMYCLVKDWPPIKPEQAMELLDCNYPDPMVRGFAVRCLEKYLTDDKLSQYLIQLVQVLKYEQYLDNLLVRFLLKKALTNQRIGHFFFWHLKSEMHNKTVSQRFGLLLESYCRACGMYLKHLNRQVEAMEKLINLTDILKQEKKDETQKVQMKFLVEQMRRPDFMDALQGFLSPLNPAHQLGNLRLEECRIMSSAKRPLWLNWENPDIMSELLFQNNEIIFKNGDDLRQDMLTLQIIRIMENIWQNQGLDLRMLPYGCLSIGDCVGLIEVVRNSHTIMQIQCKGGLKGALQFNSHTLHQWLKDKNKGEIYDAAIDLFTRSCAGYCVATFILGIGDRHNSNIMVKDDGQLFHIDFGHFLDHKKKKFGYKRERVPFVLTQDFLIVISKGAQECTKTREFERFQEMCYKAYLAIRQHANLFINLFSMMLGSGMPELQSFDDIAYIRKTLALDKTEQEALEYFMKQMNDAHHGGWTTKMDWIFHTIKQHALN
T1 sequence (P27986 whole entry partner): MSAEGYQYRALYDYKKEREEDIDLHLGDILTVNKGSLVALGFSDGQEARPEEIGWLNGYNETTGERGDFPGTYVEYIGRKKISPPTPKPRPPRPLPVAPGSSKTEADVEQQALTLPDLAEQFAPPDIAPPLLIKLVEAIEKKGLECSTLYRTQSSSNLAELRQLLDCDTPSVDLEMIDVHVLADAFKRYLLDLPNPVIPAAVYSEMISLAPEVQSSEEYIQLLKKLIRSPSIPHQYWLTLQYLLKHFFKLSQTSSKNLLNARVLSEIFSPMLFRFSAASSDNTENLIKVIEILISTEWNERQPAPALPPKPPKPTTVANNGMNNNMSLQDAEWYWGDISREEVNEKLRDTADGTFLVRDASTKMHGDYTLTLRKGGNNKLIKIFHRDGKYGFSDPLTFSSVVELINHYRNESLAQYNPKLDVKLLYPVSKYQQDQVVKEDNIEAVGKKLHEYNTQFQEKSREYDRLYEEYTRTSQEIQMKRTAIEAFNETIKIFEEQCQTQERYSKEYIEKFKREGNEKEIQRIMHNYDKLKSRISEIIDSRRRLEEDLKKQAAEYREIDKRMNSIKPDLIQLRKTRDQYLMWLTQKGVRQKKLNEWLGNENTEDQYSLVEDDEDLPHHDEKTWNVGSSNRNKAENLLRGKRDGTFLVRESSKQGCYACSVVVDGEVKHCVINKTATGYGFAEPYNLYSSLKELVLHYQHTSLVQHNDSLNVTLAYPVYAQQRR
T2 sequence (P28482 whole entry, the tested form may be a part): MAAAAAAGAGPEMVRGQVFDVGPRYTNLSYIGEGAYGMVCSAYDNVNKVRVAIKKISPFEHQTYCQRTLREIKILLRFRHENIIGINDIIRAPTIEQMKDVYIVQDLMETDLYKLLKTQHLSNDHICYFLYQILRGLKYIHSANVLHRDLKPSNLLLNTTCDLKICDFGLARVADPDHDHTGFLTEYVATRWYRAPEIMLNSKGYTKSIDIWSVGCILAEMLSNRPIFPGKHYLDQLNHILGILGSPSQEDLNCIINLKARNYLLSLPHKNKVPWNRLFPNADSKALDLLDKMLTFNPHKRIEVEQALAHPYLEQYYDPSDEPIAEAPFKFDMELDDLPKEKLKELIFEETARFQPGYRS

Take `CC(C)c1cnnc(Nc2ccc3ncc(N4CCN(S(C)(=O)=O)CC4)cc3n2)c1` [Example 0861]: the IC50 (on human PI3Kα protein; in assay [1] (ERK2 enzyme assay (2))) was less than 1000 nM throughout.

As for `CC(C)c1cnnc(Nc2ccc3ncc(N4CCC(=O)N(C)CC4)cc3n2)c1` [Example 0862], the IC50 (at human PI3Kα protein; in assay [1] (ERK2 enzyme assay (2))) was less than 1000 nM throughout.

For `CC(C)OC1CN(c2cnc3ccc(Nc4cc(C(C)C)cnn4)nc3c2)C1` [Example 0863], the figures for the IC50 (at human PI3Kα protein; in assay [1] (ERK2 enzyme assay (2))) were 1000 to 10000 nM and less than 1000 nM, respectively.

Consider `CC(C)c1cnnc(Nc2ccc3ncc(N4CC(OCCF)C4)cc3n2)c1` [Example 0864], for which the IC50 (on human PI3Kα protein; in assay [1] (ERK2 enzyme assay (2))) was less than 1000 nM throughout.

Regarding `CC(C)c1cnnc(Nc2ccc3ncc(N4CC(OCC(F)(F)F)C4)cc3n2)c1` [Example 0865], the IC50 (at human PI3Kα protein; in assay [1] (ERK2 enzyme assay (2))) was 1000 to 10000 nM each time.

`CC(C)c1cnnc(Nc2ccc3ncc(N4CC(NS(C)(=O)=O)C4)cc3n2)c1` [Example 0867]: the IC50 (on human PI3Kα protein; in assay [1] (ERK2 enzyme assay (2))) was less than 1000 nM each time.

Regarding `CC(C)c1cnnc(Nc2ccc3ncc(N4CC(OCC(F)F)C4)cc3n2)c1` [Example 0868], the results for the IC50 (at human PI3Kα protein; in assay [1] (ERK2 enzyme assay (2))) were 1000 to 10000 nM and less than 1000 nM, respectively.

For the compound `CC(C)c1cnnc(Nc2ccc3ncc(N4CC(OCC5CC5)C4)cc3n2)c1` [Example 0869], the figures for the IC50 (at human PI3Kα protein; in assay [1] (ERK2 enzyme assay (2))) were 1000 to 10000 nM and less than 1000 nM, respectively.

In the case of `CCCCOC1CN(c2cnc3ccc(Nc4cc(C(C)C)cnn4)nc3c2)C1` [Example 0870], the IC50 (on human PI3Kα protein; in assay [1] (ERK2 enzyme assay (2))) was 1000 to 10000 nM in each case.

Regarding `CC(C)c1cnnc(Nc2ccc3ncc(N4CCCN(C)CC4)cc3n2)c1` [Example 0871], the IC50 (at human PI3Kα protein; in assay [1] (ERK2 enzyme assay (2))) was 1000 to 10000 nM in each case.

For the compound `CC(=O)N1CCN(c2cnc3ccc(Nc4cc(C(C)C)cnn4)nc3c2)CC1` [Example 0872], the IC50 (on human PI3Kα protein; in assay [1] (ERK2 enzyme assay (2))) was less than 1000 nM in each case.

Consider `CC(C)c1cnnc(Nc2ccc3ncc(N4C[C@@H](C)O[C@@H](C)C4)cc3n2)c1` [Example 0873], for which the IC50 (at human PI3Kα protein; in assay [1] (ERK2 enzyme assay (2))) was less than 1000 nM throughout.

Regarding `COC[C@@H]1CCCN1c1cnc2ccc(Nc3cc(C(C)C)cnn3)nc2c1` [Example 0874], the IC50 (at human PI3Kα protein; in assay [1] (ERK2 enzyme assay (2))) was less than 1000 nM each time.

Take `CC(C)c1cnnc(Nc2ccc3ncc(N4CCN(CC(F)(F)F)CC4)cc3n2)c1` [Example 0875]: the results for the IC50 (at human PI3Kα protein; in assay [1] (ERK2 enzyme assay (2))) were 1000 to 10000 nM and less than 1000 nM, respectively.

On to `CC(C)c1cnnc(Nc2ccc3ncccc3n2)c1` [Example 0876], for which the IC50 (on human PI3Kα protein; in assay [1] (ERK2 enzyme assay (2))) was 1000 to 10000 nM each time.

Consider `CC(C)c1cnnc(Nc2ccc3ncc(NC4CCCCC4)cc3n2)c1` [Example 0877], for which the IC50 at human PI3Kα protein is less than 1000 nM; in assay [1] (ERK2 enzyme assay (2)) it was 1000 to 10000 nM.

Regarding `CC(C)c1cnnc(Nc2ccc3ncc(NC4CCCC4)cc3n2)c1` [Example 0878], the figures for the IC50 (on human PI3Kα protein; in assay [1] (ERK2 enzyme assay (2))) were less than 1000 nM and 1000 to 10000 nM, respectively.

For the compound `CC(C)c1cnnc(Nc2ccc3ncc(NC4CCC4)cc3n2)c1` [Example 0879], the IC50 (at human PI3Kα protein; in assay [1] (ERK2 enzyme assay (2))) was less than 1000 nM each time.

Consider `CC(C)c1cnnc(Nc2ccc3ncc(C4=CCN(C(=O)OC(C)(C)C)CC4)cc3n2)c1` [Example 0880, tert-butyl 4-(6-((5-isopropylpyridazin-3-yl)amino)-1,5-naphthyridin-3-yl)-5,6-dihydropyridine-1(2H)-carboxylate], for which the IC50 (on human PI3Kα protein; in assay [1] (ERK2 enzyme assay (2))) was less than 1000 nM throughout.

Turning to `CC(C)c1cnnc(Nc2ccc3ncc(C4=CCNCC4)cc3n2)c1` [Example 0881, N-(5-isopropylpyridazin-3-yl)-7-(1,2,3,6-tetrahydropyridin-4-yl)-1,5-naphthyridine-2-amine], the results for the IC50 (on human PI3Kα protein; in assay [1] (ERK2 enzyme assay (2))) were 1000 to 10000 nM and less than 1000 nM, respectively.

For `CC(=O)N1CC=C(c2cnc3ccc(Nc4cc(C(C)C)cnn4)nc3c2)CC1` [Example 0882, 1-(4-(6-((5-isopropylpyridazin-3-yl)amino)-1,5-naphthyridin-3-yl)-5,6-dihydropyridine-1(2H)-yl)ethanone], the IC50 (on human PI3Kα protein; in assay [1] (ERK2 enzyme assay (2))) was less than 1000 nM in each case.

`CC(C)c1cnnc(Nc2ccc3ncc(C4=CCN(C(=O)N(C)C)CC4)cc3n2)c1` [Example 0883, 4-(6-((5-Isopropylpyridazin-3-yl)amino)-1,5-naphthyridin-3-yl)-N,N-dimethyl-5,6-dihydropyridine-1(2H)-carboxamide]: the IC50 (at human PI3Kα protein; in assay [1] (ERK2 enzyme assay (2))) was less than 1000 nM throughout.

Regarding `CC(C)c1cnnc(Nc2ccc3ncc(C4=CCN(C)CC4)cc3n2)c1` [Example 0884, N-(5-isopropylpyridazin-3-yl)-7-(1-methyl-1,2,3,6-tetrahydropyridin-4-yl)-1,5-naphthyridine-2-amine], the IC50 was 1000 to 10000 nM at human PI3Kα protein and less than 1000 nM in assay [1] (ERK2 enzyme assay (2)).

Regarding `Cc1nn(C)cc1-c1cnc2ccc(Nc3cc(C4(C)CC4)cnn3)nc2c1` [Example 0885, 7-(1,3-Dimethyl-1H-pyrazol-4-yl)-N-(5-(1-methylcyclopropyl)pyridazin-3-yl)-1,5-naphthyridine-2-amine], the IC50 (at human PI3Kα protein; in assay [1] (ERK2 enzyme assay (2))) was less than 1000 nM each time.

On to `CC(C)c1cnnc(Nc2ccc3ncc(-c4cn(C)nc4Cl)cc3n2)c1` [Example 0886, 7-(3-Chloro-1-methyl-1H-pyrazol-4-yl)-N-(5-isopropylpyridazin-3-yl)-1,5-naphthyridine-2-amine], for which the IC50 (at human PI3Kα protein; in assay [1] (ERK2 enzyme assay (2))) was less than 1000 nM in each case.

With `CC(C)c1cnnc(Nc2ccc3ncc(N4CCN(C)C(=O)C4)cc3n2)c1` [Example 0887], the values for the IC50 (on human PI3Kα protein; in assay [1] (ERK2 enzyme assay (2))) were less than 1000 nM and 1000 to 10000 nM, respectively.

As for `CC(C)c1cnnc(Nc2ccc3ncc(NC4(C)CCC4)cc3n2)c1` [Example 0888], the IC50 (at human PI3Kα protein; in assay [1] (ERK2 enzyme assay (2))) was 1000 to 10000 nM in each case.

In the case of `COCC1(Nc2cnc3ccc(Nc4cc(C(C)C)cnn4)nc3c2)CCC1` [Example 0889], the IC50 (on human PI3Kα protein; in assay [1] (ERK2 enzyme assay (2))) was 10000 to 50000 nM each time.

As for `CC(C)c1cnnc(Nc2ccc3ncc(NC4CCOC4)cc3n2)c1` (centres unmarked) [Example 0890], the IC50 was less than 1000 nM at human PI3Kα protein and 1000 to 10000 nM in assay [1] (ERK2 enzyme assay (2)).

`CC(C)c1cnnc(Nc2ccc3ncc(NC4CN(C(=O)OC(C)(C)C)C4)cc3n2)c1` [Example 0891]: the IC50 is 1000 to 10000 nM at human PI3Kα protein and less than 1000 nM in assay [1] (ERK2 enzyme assay (2)).

For `CC(C)c1cnnc(Nc2ccc3ncc(C4=CCN(C(=O)OC(C)(C)C)C4)cc3n2)c1` [Example 0892, tert-butyl 3-(6-((5-isopropylpyridazin-3-yl)amino)-1,5-naphthyridin-3-yl)-2,5-dihydro-1H-pyrrole-1-carboxylate], the IC50 (at human PI3Kα protein; in assay [1] (ERK2 enzyme assay (2))) was 1000 to 10000 nM throughout.

For `CC(C)c1cnnc(Nc2ccc3ncc(N4CCC(F)(F)C4)cc3n2)c1` [Example 0893], the IC50 (at human PI3Kα protein; in assay [1] (ERK2 enzyme assay (2))) was less than 1000 nM throughout.

Turning to `CO[C@H]1CCC[C@@H]1Nc1cnc2ccc(Nc3cc(C(C)C)cnn3)nc2c1` [Example 0894], the IC50 was less than 1000 nM at human PI3Kα protein and 1000 to 10000 nM in assay [1] (ERK2 enzyme assay (2)).

As for `COC1CCN(c2cnc3ccc(Nc4cc(C(C)C)cnn4)nc3c2)C1` (centres unmarked) [Example 0895], the results for the IC50 (at human PI3Kα protein; in assay [1] (ERK2 enzyme assay (2))) were 1000 to 10000 nM and less than 1000 nM, respectively.

On to `CC(C)c1cnnc(Nc2ccc3ncc(N4CCC(C(F)(F)F)C4)cc3n2)c1` (centres unmarked) [Example 0896], for which the IC50 (on human PI3Kα protein; in assay [1] (ERK2 enzyme assay (2))) was 1000 to 10000 nM throughout.

Turning to `CC(C)c1cnnc(Nc2ccc3ncc(N4CCC(C#N)C4)cc3n2)c1` (centres unmarked) [Example 0897], the IC50 (at human PI3Kα protein; in assay [1] (ERK2 enzyme assay (2))) was less than 1000 nM throughout.

With `CC(C)c1cnnc(Nc2ccc3ncc(N4CCC(C(N)=O)C4)cc3n2)c1` (centres unmarked) [Example 0898], the IC50 on human PI3Kα protein was less than 1000 nM; in assay [1] (ERK2 enzyme assay (2)), 1000 to 10000 nM.

For the compound `CC(C)c1cnnc(Nc2ccc3ncc(N4CCC(N5CCCC5)C4)cc3n2)c1` (centres unmarked) [Example 0899], the IC50 (at human PI3Kα protein; in assay [1] (ERK2 enzyme assay (2))) was 1000 to 10000 nM throughout.

As to `CC(C)c1cnnc(Nc2ccc3ncc(N4CCC(S(N)(=O)=O)C4)cc3n2)c1` (centres unmarked) [Example 0900], the figures for the IC50 (at human PI3Kα protein; in assay [1] (ERK2 enzyme assay (2))) were less than 1000 nM and 1000 to 10000 nM, respectively.

For `CC(C)c1cnnc(Nc2ccc3ncc(N4C5CCC4COC5)cc3n2)c1` [Example 0901], the IC50 on human PI3Kα protein was 1000 to 10000 nM; in assay [1] it was less than 1000 nM.

Regarding `CC(C)c1cnnc(Nc2ccc3ncc(N4CC5CC(C4)O5)cc3n2)c1` [Example 0902], the IC50 (at human PI3Kα protein; in assay [1]) was less than 1000 nM throughout.

Turning to `CC(C)c1cnnc(Nc2ccc3ncc(N4CC5CCC(C4)O5)cc3n2)c1` [Example 0903], the IC50 (on human PI3Kα protein; in assay [1]) was less than 1000 nM throughout.

Turning to `CC(C)c1cnnc(Nc2ccc3ncc(NC4COC4)cc3n2)c1` [Example 0904], the IC50 at human PI3Kα protein is less than 1000 nM; in assay [1] it was 1000 to 10000 nM.

Regarding `CC(C)c1cnnc(Nc2ccc3ncc(NC4CNC4)cc3n2)c1` [Example 0905, N^7-(azetidin-3-yl)-N^2-(5-isopropylpyridazin-3-yl)-1,5-naphthyridine-2,7-diamine], the IC50 (on human PI3Kα protein; in assay [1]) was 1000 to 10000 nM each time.

Regarding `CC(C)c1cnnc(Nc2ccc3ncc(C4=CCNC4)cc3n2)c1` [Example 0906, 7-(2,5-Dihydro-1H-pyrrol-3-yl)-N-(5-isopropylpyridazin-3-yl)-1,5-naphthyridine-2-amine], the IC50 at human PI3Kα protein is 1000 to 10000 nM; in assay [1], less than 1000 nM.

Turning to `CC(C)c1cnnc(Nc2ccc3ncc(C4=CCN(C(=O)N(C)C)C4)cc3n2)c1` [Example 0907, 3-(6-((5-Isopropylpyridazin-3-yl)amino)-1,5-naphthyridin-3-yl)-N,N-dimethyl-2,5-dihydro-1H-pyrrole-1-carboxamide], the IC50 (at human PI3Kα protein; in assay [1]) was less than 1000 nM in each case.
